Measured values reported in patent publication US20180042983A1, “THERAPEUTIC COMPOSITIONS INCLUDING MITOCHONDRIAL FISSION INHIBITOR PEPTIDES, VARIANTS THEREOF, AND METHODS OF USING THE SAME” (STEALTH PEPTIDES INTERNATIONAL, INC., priority 2015, published 2018).

Assays:
neonatal cardiomyocytes = assay: Ang II-induced mitochondrial ROS in neonatal cardiomyocytes (Mitosox flow cytometry); format: cell-based, mouse; conditions: after Ang II (1 μM, 3 hours)
Experimental: Ventricles from mouse neonates younger than 72 hours will be dissected, minced, and enzymatically digested with Blendzyme 4 (45 mg/mL, Roche). After enzymatic digestion, cardiomyocytes will be enriched using differential pre-plating for 2 hours, and seeded on fibronectin-coated culture dishes for 24 hours in DMEM (Gibco) with 20% Fetal Bovine Serum (Sigma) and 25 μM Arabinosylcytosine (Sigma). Cardiomyocytes will be stimulated with Angiotensin II (1 μM) for 3 hours in serum-free DMEM containing 0.5% insulin transferrin-selenium (Sigma), 2 mM glutamine, and 1 mg/mL BSA. […] To measure mitochondrial superoxide concentration, Mitosox ([…]) will be incubated for 30 minutes at 37° C. to load cardiomyocytes, followed by 2 washes with Hanks Balanced Salt Solution. Samples will be analyzed using excitation/emission of 488/625 nm by flow cytometry. Flow data will be analyzed using FCS Express (De Novo Software, Los Angeles, Calif., U.S.A.), and presented as histogram distributions of Mitosox fluorescence intensity.

[1] = test system: several mammalian cell types; conditions: cited from earlier work

Compound | mitochondrial ROS (Mitosox fluorescence) (neonatal cardiomyocytes) | penetration of the plasma membrane [1]
CC(=O)N[C@@H](CS)C(=O)O [N-acetyl cysteine] | not show any effect | –
2′,6′-Dmt-D-Arg-Phe-Lys-NH2 | – | readily penetrates the plasma membrane of several mammalian cell types in an energy-independent manner
